Test results published in PMC7778606, “Development of the phenylpyrazolo[3,4-d]pyrimidine-based, insulin-like growth factor receptor/Src/AXL-targeting small molecule kinase inhibitor” (Theranostics, 2021).
Read-outs that look alike come from different tables or passages of the source.

Tests used:
MET = biological target: T1, MET (Homo sapiens, UniProt P08581); assay: KINOMEscan competition binding assay; conditions: LL6 at 10 μM; read-out: Percent Control
T1 construct: purchased DiscoverX KINOMEscan
T1 sequence (P08581 25-1390): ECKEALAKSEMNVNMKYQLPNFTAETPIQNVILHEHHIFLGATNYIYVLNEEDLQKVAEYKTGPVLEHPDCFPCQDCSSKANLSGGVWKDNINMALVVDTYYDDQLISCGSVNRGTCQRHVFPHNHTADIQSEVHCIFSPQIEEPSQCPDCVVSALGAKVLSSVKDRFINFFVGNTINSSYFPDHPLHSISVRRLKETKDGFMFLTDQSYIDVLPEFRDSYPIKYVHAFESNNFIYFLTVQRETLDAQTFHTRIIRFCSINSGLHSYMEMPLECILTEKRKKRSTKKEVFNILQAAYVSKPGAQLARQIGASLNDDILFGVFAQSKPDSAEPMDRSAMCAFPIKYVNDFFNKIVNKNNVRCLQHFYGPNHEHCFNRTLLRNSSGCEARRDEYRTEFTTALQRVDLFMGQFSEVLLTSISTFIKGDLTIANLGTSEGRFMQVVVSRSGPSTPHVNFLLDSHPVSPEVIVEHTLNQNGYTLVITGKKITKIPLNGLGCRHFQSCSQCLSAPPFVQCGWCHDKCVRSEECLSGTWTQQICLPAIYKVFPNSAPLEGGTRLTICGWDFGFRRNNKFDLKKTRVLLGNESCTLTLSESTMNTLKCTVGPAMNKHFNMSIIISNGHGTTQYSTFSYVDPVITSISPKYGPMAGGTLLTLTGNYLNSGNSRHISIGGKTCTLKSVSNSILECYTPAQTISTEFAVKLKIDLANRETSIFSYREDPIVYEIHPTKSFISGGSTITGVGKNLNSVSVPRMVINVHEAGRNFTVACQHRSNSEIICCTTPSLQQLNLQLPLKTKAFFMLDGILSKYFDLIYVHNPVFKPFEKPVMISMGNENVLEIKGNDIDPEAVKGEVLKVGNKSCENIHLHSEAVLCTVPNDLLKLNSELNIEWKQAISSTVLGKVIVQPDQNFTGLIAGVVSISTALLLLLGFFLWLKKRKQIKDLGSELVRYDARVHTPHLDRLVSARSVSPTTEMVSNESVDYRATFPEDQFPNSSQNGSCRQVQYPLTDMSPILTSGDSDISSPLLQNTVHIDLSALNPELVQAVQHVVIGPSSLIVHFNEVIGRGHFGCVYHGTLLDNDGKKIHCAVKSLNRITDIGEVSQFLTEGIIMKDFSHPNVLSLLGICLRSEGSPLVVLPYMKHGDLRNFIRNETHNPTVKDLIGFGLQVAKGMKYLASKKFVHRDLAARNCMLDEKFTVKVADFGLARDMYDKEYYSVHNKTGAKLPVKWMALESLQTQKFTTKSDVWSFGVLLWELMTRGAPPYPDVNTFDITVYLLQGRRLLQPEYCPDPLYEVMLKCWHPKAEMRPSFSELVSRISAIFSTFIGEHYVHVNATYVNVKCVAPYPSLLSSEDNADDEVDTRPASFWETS
In short: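 Duplicate 11-point curves of ligand displacement underlie these Kd values; the assay scores a compound's ability to outcompete an immobilized ligand.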

LLC allografts = assay: Spontaneous lung metastasis of LLC allografts; assay type: in vivo, C57BL/6 mice; conditions: 80 mg/kg orally, daily for 2 weeks
Procedure: We used the IVIS-Spectrum microCT and Living Image (ver. 4.2) software (PerkinElmer, Alameda, CA, USA) for monitoring metastatic tumor formation in the lungs. The instrument was operated according to the manufacturer's instruction. To facilitate the detection of photons emitted from metastatic lung tumors, we performed ex vivo imaging analysis. In brief, mice were injected at 60 mg/kg with the 15 mg/mL stock of luciferin prior to anesthesia. After 10-15 min, mice were euthanized, and lung tissues were excised and placed into a 60 mm dish. Tissues were immediately imaged after exposure for 1 min.

Toxicity test in mice = assay type: in vivo, FVB mice
Procedure: Blood was collected from euthanized mice under isoflurane-induced deep anesthesia by cardiac puncture. After allowing blood coagulation at 4 °C, serum was collected by centrifugation at 3,000 rpm for 10 min at 4 °C. Analysis of the serum levels of alanine aminotransferase (ALT) and aspartate aminotransferase (AST) was performed using a veterinary hematology analyzer (Fuji DRI-Chem 3500s, Fujifilm, Tokyo, Japan) according to the manufacturer' s protocols.

Glucose tolerance test = assay type: in vivo; conditions: LL6-administered mice vs vehicle-treated mice
Procedure: Glucose tolerance tests were performed as described in the previously published literature.

IGF-1R = assay: KINOMEscan competition binding assay; design: species or system human
Procedure: (§1) Kd values were obtained by KINOMEscan from DiscoverX (San Diego, CA, USA). To briefly summarize, Kd was measured by a competition binding assay that quantitatively measures the ability of a compound to compete with an immobilized ligand. […] Dose response curves of 11 points are obtained for Kd values, which are measured in duplicate. See more details in the cited references [39]-[42] and see also at www.discoverx.com.

AXL = assay: KINOMEscan competition binding assay; design: species or system human
Procedure: as §1

Src = assay: KINOMEscan competition binding assay; design: species or system human
Procedure: as §1

[1] = test system: Wi38, RPE, and HT-22 cells; assay: MTT assay, viability of normal cells; assay type: cell-based, human, mouse
Procedure: (§2) Cells were seeded into 96-well plates at a density of 1-2 × 10^3 cells/well and incubated for 24 h. Cells were treated with vehicle or various concentrations of test compounds for two (PC9 and PC9/ER cells) or three (other cells) days. Cells were further incubated with MTT solution (final concentration of 500 μg/mL) for 4 h at 37 °C. The formazan products were dissolved in dimethyl sulfoxide (DMSO), and the absorbance was measured at 570 nm. The data are presented as a percentage of the control group.

NSCLC cell lines = assay: MTT assay, viability of various NSCLC cell lines; assay type: cell-based; conditions: Homo sapiens; NSCLC cells with various genetic backgrounds and histologies
Procedure: as §2

H226B cells = assay: MTT assay, viability of H226B cells; assay type: cell-based; conditions: Homo sapiens, 72 h, three days, read-out: IC50 against the viability
Procedure: as §2

[2] = biological target: T2, ABL1(E255K)-phosphorylated (Homo sapiens, UniProt P00519, E255K); assay: KINOMEscan competition binding assay; conditions: LL6 at 10 μM; read-out: Percent Control
T2 construct: purchased DiscoverX KINOMEscan
Procedure: (§3) To briefly summarize, Kd was measured by a competition binding assay that quantitatively measures the ability of a compound to compete with an immobilized ligand. […] Dose response curves of 11 points are obtained for Kd values, which are measured in duplicate. See more details in the cited references [39]-[42] and see also at www.discoverx.com.

[3] = biological target: T3, ABL1(T315I)-phosphorylated (Homo sapiens, UniProt P00519, T315I); assay: KINOMEscan competition binding assay; conditions: LL6 at 10 μM; read-out: Percent Control
T3 construct: purchased DiscoverX KINOMEscan
Procedure: as §3

AURKB = biological target: T4, AURKB (Homo sapiens, UniProt Q96GD4); assay: KINOMEscan competition binding assay; conditions: LL6 at 10 μM; read-out: Percent Control
T4 construct: purchased DiscoverX KINOMEscan
T4 sequence (Q96GD4 whole entry): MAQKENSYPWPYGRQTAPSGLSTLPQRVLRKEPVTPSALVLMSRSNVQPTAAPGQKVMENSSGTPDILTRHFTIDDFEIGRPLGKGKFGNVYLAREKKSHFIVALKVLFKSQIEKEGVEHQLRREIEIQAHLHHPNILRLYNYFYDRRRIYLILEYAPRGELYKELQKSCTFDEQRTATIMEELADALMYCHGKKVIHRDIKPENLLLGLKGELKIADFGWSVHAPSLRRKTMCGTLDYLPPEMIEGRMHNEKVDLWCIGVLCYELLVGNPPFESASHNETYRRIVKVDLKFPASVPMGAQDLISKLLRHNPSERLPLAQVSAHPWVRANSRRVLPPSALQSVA
Procedure: as §3

ABL1-phosphorylated = biological target: T5, ABL1-phosphorylated (Homo sapiens, UniProt P00519); assay: KINOMEscan competition binding assay; conditions: LL6 at 10 μM; read-out: Percent Control
T5 construct: purchased DiscoverX KINOMEscan
Procedure: as §3

ACVR1B = biological target: T6, ACVR1B (Homo sapiens, UniProt P36896); assay: KINOMEscan competition binding assay; conditions: LL6 at 10 μM; read-out: Percent Control
T6 construct: purchased DiscoverX KINOMEscan
T6 sequence (P36896 24-505): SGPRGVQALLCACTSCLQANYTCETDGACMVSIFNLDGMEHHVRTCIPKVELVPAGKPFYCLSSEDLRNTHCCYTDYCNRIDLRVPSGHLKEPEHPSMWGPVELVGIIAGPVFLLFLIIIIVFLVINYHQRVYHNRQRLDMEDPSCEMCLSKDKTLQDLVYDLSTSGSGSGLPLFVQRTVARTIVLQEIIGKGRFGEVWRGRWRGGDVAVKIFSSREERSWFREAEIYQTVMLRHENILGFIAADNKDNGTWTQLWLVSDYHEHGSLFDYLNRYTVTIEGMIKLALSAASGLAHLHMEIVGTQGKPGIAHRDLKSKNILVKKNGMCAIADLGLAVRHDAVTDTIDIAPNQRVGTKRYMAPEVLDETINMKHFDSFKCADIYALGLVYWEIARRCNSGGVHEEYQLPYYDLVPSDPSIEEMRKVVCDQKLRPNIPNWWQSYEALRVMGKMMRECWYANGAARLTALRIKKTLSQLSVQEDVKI
Procedure: as §3

AKT1 = biological target: T7, AKT1 (Homo sapiens, UniProt P31749); assay: KINOMEscan competition binding assay; conditions: LL6 at 10 μM; read-out: Percent Control
T7 construct: purchased DiscoverX KINOMEscan
T7 sequence (P31749 whole entry): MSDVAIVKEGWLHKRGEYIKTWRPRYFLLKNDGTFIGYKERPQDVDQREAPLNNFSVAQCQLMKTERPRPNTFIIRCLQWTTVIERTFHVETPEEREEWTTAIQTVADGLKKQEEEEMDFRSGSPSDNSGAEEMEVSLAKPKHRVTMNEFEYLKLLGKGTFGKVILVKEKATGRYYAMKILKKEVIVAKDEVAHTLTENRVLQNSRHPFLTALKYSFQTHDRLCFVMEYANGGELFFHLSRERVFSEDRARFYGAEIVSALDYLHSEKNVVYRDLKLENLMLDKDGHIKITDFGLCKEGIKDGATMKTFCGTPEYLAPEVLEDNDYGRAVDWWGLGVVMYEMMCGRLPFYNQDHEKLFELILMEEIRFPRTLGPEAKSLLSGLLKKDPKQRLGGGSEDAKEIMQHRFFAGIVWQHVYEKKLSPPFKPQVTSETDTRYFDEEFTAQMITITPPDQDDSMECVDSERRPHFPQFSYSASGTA
Procedure: as §3

ABL1-nonphosphorylated = biological target: T8, ABL1-nonphosphorylated (Homo sapiens, UniProt P00519); assay: KINOMEscan competition binding assay; conditions: LL6 at 10 μM; read-out: Percent Control
T8 construct: purchased DiscoverX KINOMEscan
Procedure: as §3

ADCK3 = biological target: T9, ADCK3 (Homo sapiens, UniProt Q8NI60); assay: KINOMEscan competition binding assay; conditions: LL6 at 10 μM; read-out: Percent Control
T9 construct: purchased DiscoverX KINOMEscan
T9 sequence (Q8NI60 163-647): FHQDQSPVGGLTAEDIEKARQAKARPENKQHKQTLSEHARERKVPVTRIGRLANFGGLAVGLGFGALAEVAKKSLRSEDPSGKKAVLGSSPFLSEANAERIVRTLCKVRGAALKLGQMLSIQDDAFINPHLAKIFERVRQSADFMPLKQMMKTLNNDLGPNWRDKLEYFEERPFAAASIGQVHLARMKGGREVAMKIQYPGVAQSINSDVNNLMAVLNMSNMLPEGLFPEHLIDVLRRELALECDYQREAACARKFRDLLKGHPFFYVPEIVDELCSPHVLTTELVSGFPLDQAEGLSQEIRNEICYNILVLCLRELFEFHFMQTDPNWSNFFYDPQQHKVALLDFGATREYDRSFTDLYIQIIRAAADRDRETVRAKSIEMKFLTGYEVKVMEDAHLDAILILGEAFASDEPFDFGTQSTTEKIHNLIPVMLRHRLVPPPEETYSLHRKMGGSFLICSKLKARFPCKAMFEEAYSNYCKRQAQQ
Procedure: as §3

AKT2 = biological target: T10, AKT2 (Homo sapiens, UniProt P31751); assay: KINOMEscan competition binding assay; conditions: LL6 at 10 μM; read-out: Percent Control
T10 construct: purchased DiscoverX KINOMEscan
T10 sequence (P31751 whole entry): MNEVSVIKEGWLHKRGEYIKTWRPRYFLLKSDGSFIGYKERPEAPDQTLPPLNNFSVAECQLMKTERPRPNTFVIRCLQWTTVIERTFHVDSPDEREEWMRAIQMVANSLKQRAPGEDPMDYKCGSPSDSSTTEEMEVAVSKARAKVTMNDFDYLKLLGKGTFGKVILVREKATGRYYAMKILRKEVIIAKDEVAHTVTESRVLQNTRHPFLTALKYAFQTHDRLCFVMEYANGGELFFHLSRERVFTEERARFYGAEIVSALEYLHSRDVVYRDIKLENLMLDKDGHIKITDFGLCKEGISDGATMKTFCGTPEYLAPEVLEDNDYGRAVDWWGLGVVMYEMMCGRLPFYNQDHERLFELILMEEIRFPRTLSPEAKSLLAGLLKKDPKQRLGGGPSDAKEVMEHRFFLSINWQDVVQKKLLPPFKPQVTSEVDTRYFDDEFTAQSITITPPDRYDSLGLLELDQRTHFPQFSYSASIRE
Procedure: as §3

A549 cells = assay: MTT assay, viability of A549 cells; assay type: cell-based; conditions: Homo sapiens
Procedure: as §2

H522 cells = assay: MTT assay, viability of H522 cells; assay type: cell-based; conditions: Homo sapiens, NCI-H522, 72 h, three days, read-out: IC50 against the viability
Procedure: as §2

[4] = LL6-treated mice vs vehicle-treated control

With `Nc1ncnc2c1c(-c1ccc(Cl)cc1)nn2CCn1cc(COc2ccc(Nc3nccc(Nc4cnc5ccccc5c4)n3)cc2)nn1` [LL6] the remaining binding at 10 µM (MET) was 75%, the “metastatic tumor nodules in the lungs” value (LLC allografts) was “significantly decreased” and the “histological alterations in major organs, including the lung and liver” value (Toxicity test in mice; H&E-stained tissues) was “did not cause detectable histological alterations”. The “serum ALT level” value (Toxicity test in mice; [4]) was “remained unchanged”, the “serum AST level” value (Toxicity test in mice; [4]) was “remained unchanged” and the body weight (Toxicity test in mice; mice, LL6 20, 40, and 80 mg/kg daily for 2 weeks) was “remained unchanged”. The glucose clearance (Glucose tolerance test) was “minimal difference”, the Kd (IGF-1R; IGF-1R, 11-point dose response, duplicate) was 5000 nM and the inhibition (IGF-1R; IGF-1R, LL6 at 10 µM) was over 65%. For the same compound, the “Percent Control” value (IGF-1R; LL6 at 10 μM) was 16%, the Kd (AXL; AXL, 11-point dose response, duplicate) was 1600 nM and the inhibition (AXL; AXL, LL6 at 10 µM) was over 65%. The “Percent Control” value (AXL; LL6 at 10 μM) was 22%, the “Percent Control” value (Src; LL6 at 10 μM) was 26% and the Kd (Src; Src, 11-point dose response, duplicate) was 3400 nM. The inhibition (Src; Src, LL6 at 10 µM) was over 65%, the “cytotoxicity in normal cells compared with the LDB combination” value [1] was “markedly less cytotoxicity” and the IC50 (NSCLC cell lines) was about 2500 nM. It also gave an IC50 (H226B cells) of 1370 nM, a remaining binding at 10 µM [2] of 92% and a remaining binding at 10 µM [3] of 100%. It also gave a remaining binding at 10 µM (AURKB) of 55%, a remaining binding at 10 µM (ABL1-phosphorylated) of 62% and a remaining binding at 10 µM (ACVR1B) of 50%. The remaining binding at 10 µM (AKT1) was 100%, the remaining binding at 10 µM (ABL1-nonphosphorylated) was 61% and the remaining binding at 10 µM (ADCK3) was 67%. For the same compound, the remaining binding at 10 µM (AKT2) was 77%, the activity at 10 µM (A549 cells; 72 h, A549, MTT assay, 10 μM, read-out: % cells growth at 10 μM) was 6.4% and the IC50 (A549 cells; 72 h, A549, MTT assay, three days, read-out: IC50 against the viability (Table S4)) was 6630 nM. For the same compound, the IC50 (A549 cells; A549, MTT assay, read-out: IC50 against the viability of A549 cells (Table S2)) was 2590 nM and the IC50 (H522 cells) was 3550 nM.
